# Target: T1, Zinc finger protein GLI1 (Homo sapiens, UniProt P08151)
# T1 sequence (P08151 whole entry): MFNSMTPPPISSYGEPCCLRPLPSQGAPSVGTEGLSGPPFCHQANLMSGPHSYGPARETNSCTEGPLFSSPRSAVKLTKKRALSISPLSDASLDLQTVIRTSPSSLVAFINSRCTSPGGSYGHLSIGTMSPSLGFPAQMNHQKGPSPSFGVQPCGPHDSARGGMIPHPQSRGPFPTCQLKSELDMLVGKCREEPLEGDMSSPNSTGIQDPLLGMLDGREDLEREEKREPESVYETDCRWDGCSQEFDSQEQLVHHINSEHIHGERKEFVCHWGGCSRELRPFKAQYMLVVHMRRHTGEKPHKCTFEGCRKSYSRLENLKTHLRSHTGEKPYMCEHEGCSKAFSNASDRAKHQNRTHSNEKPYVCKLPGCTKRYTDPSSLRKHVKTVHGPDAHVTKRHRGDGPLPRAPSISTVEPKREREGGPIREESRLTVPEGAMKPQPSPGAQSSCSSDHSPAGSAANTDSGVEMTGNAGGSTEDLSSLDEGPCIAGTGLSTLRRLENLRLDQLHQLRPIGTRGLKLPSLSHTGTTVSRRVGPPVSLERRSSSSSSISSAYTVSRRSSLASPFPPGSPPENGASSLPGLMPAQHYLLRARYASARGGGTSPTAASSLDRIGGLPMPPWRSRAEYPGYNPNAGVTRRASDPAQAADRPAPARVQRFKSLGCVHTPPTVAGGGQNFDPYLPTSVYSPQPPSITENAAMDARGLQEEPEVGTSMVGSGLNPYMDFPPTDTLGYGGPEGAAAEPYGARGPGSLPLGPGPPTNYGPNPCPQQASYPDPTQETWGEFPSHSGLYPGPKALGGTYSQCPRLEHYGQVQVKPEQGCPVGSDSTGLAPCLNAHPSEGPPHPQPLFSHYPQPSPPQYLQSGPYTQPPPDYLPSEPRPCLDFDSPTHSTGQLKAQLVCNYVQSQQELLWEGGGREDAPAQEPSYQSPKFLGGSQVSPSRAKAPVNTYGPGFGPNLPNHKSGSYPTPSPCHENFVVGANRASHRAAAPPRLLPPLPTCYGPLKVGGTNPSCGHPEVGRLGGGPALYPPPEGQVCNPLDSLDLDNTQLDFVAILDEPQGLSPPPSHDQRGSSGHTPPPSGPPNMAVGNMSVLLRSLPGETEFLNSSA
# Assay: Inhibition of Gli1-mediated transcription expressed in human PANC1 cells
row,Compound,IC50
1,O=C1NCc2c1c1c3ccccc3[nH]c1c1[nH]c3ccccc3c21,1800 nM
2,C[C@]12C(=O)C=CCC1=CC[C@@H]1[C@@H]2CC[C@]2(O)C(=O)O[C@@]3(C)[C@H]4C[C@]5(C)[C@@H](CO[C@@]16O[C@@]32[C@H]5C6=O)C(=O)O4 [NSC-287088],620 nM
3,C[C@@]12C[C@H]3OC(=O)[C@@H]1CO[C@]14O[C@]5([C@H]2C1=O)[C@@](O)(CC[C@H]1[C@H]4C[C@H]2O[C@]24CC=CC(=O)[C@]14C)C(=O)O[C@@]35C [PHYSALIN F],660 nM
4,C/C1=C\CC(C)(C)/C=C/C(=O)/C(C)=C/CC1 [Zerumbone],7100 nM

# Target: Zinc finger protein GLI2 (Homo sapiens, UniProt P10070)
# Assay: Inhibition of Gli2-mediated transcription expressed in human PANC1 cells
# Zinc finger protein GLI2, sequence (P10070 whole entry): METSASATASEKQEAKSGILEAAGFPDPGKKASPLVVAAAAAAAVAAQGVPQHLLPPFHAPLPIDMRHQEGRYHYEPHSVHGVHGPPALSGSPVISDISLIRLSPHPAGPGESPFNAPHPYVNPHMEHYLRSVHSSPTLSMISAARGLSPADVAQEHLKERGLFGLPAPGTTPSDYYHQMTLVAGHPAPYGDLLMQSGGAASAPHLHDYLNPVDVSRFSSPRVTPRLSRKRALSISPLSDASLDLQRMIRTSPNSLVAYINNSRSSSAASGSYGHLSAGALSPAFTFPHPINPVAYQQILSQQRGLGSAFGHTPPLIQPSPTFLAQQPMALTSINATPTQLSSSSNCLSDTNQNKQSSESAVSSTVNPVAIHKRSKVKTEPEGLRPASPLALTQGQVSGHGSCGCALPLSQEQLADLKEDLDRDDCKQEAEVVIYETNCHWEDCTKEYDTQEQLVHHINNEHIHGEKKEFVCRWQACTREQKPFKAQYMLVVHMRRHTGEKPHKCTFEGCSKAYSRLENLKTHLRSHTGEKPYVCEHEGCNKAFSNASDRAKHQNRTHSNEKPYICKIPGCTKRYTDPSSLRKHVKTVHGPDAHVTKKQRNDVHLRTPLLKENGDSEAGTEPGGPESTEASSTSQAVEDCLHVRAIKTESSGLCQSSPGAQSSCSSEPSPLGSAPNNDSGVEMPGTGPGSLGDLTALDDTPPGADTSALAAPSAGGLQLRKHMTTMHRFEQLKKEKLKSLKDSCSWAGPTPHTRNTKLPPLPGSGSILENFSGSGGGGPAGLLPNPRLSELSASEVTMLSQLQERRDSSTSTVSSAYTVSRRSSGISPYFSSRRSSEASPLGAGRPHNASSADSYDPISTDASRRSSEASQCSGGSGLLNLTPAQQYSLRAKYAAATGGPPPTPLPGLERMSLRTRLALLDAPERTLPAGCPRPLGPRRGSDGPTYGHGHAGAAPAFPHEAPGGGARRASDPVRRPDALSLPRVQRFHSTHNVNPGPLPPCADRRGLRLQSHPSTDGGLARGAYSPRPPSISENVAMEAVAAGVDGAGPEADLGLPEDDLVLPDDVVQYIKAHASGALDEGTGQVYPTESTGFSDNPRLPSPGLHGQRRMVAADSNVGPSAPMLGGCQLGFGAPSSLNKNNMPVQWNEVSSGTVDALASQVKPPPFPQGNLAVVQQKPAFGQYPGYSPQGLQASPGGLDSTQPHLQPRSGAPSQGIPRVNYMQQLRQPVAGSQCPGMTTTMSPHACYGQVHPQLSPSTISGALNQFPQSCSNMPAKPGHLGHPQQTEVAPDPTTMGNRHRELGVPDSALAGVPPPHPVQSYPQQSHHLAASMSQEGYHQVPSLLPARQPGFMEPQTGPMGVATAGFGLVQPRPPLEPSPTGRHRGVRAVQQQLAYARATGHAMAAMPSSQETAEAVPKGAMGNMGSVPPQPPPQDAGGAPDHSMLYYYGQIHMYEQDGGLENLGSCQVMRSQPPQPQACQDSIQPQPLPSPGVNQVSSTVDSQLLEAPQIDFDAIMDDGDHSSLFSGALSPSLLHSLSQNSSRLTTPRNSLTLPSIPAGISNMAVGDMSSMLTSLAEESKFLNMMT
row,Compound,IC50
1,O=C1NCc2c1c1c3ccccc3[nH]c1c1[nH]c3ccccc3c21,2700 nM
2,C/C1=C\CC(C)(C)/C=C/C(=O)/C(C)=C/CC1 [Zerumbone],910 nM

# Target: not listed separately
# Assay: Inhibition of SHH-mediated mouse C3H10T1/2 cells differentiation into osteoblasts by alkaline phosphatase assay
row,IC50,Compound
1,2.8 nM,"Cc1cccc(C)c1NC(=O)c1ccc(Nc2nc(C3CC3)c3ccccc3n2)cc1 [4-(4-cyclopropylquinazolin-2-ylamino)-N-(2,6-dimethylphenyl)benzamide]"
2,< 20 nM,"Cc1nn(-c2ccccc2)c(C)c1C=NN1CCN(Cc2ccccc2)CC1 [4-benzyl-N-((3,5-dimethyl-1-phenyl-1H-pyrazol-4-yl)methylene)piperazin-1-amine]"
3,< 100 nM,COc1ccc(-c2cc(C3CC3)nc(SCC(C)=O)c2C#N)cc1 [6-cyclopropyl-4-(4-methoxyphenyl)-2-(2-oxopropylthio)nicotinonitrile]
4,200 nM,CCCCCc1ccc(-c2ccc(/C=C/C(=O)N3CCCCC3)cc2)nc1 [(E)-3-(4-(5-pentylpyridin-2-yl)phenyl)-1-(piperidin-1-yl)prop-2-en-1-one]
5,5.8 nM,"CN1CCCc2ccc(NC(=O)c3ccc(Nc4nc(-c5ccccc5)c5ccccc5n4)cc3)cc21 [N-(1-methyl-1,2,3,4-tetrahydroquinolin-7-yl)-4-(4-phenylquinazolin-2-ylamino)benzamide]"
6,3.6 nM,"Cc1cccc(C)c1NC(=O)c1ccc(Nc2nc(-c3ccccc3)c3cccnc3n2)cc1 [N-(2,6-dimethylphenyl)-4-(4-phenylpyrido[2,3-d]pyrimidin-2-ylamino)benzamide]"
7,30 nM,"CCOc1cc(C(=O)Nc2ccc(Cl)c(-c3nc4ccccc4[nH]3)c2)cc(OCC)c1OCC [N-(3-(1H-Benzo[d]imidazol-2-yl)-4-chlorophenyl)-3,4,5-triethoxybenzamide]"

# Target: Sonic hedgehog protein (Homo sapiens, UniProt Q15465)
# Assay: Inhibition of lipid-modified (octylated) form of SHH expressed in mouse s12 cells by luciferase reporter gene assay
# Sonic hedgehog protein (Homo sapiens, UniProt Q15465), sequence (Q15465 24-197 limits assumed): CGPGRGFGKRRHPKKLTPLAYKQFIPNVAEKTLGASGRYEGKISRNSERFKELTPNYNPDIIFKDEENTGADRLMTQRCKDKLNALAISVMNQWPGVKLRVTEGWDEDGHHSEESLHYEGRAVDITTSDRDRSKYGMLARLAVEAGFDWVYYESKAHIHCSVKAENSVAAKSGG
row,Compound,IC50
1,"CC1=C2C(=O)[C@H]3[C@@H](CC=C4C[C@@H](O)CC[C@@]43C)[C@@H]2CC[C@]12O[C@@H]1C[C@H](C)CN[C@H]1[C@H]2C [5'-hydroxy-2',3,6,15'-tetramethyl-(1'S,2'R,2'R,3R,3aS,5'S,6S,7aR,10'S,11'S)-spiro[perhydrofuro[3,2-b]pyridine-2,14'-tetracyclo[8.7.0.02,7.011,16]heptadeca-7',15'-diene]-17'-one]",500 nM
2,"COc1cccc(CN(C(=O)CC(C)(C)C)[C@H]2C[C@@H](C(=O)N3CCNCC3)N(Cc3ccc4c(c3)OCO4)C2)c1 [N-((3S,5S)-1-(benzo[d][1,3]dioxol-5-ylmethyl)-5-(piperazine-1-carbonyl)pyrrolidin-3-yl)-N-(3-methoxybenzyl)-3,3-dimethylbutanamide]",100 nM

# Target: Sonic hedgehog protein (Mus musculus, UniProt Q62226)
# Assay: Inhibition of SHH in mouse Shh Light2 cells by GLI-responsive firefly luciferase reporter gene assay
# Sonic hedgehog protein (Mus musculus, UniProt Q62226), sequence (Q62226 25-198 limits assumed): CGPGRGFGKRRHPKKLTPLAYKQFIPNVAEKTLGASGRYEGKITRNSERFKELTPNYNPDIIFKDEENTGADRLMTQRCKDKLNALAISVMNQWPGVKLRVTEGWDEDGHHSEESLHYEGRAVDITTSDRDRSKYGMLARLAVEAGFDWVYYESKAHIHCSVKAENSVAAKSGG
IC50,Compound,EC50
–,CC1=C2C[C@H]3[C@@H](CC=C4C[C@@H](O)CC[C@@]43C)[C@@H]2CC[C@]12O[C@@H]1C[C@H](C)CN[C@H]1[C@H]2C,500 nM
100 nM,CC(=O)c1cccc(Nc2nc(-c3ccccc3)cs2)c1 [1-(3-(4-phenylthiazol-2-ylamino)phenyl)ethanone],–
5000 nM,"CN(C)c1ccccc1CN1CCCN(Cc2ccccc2N(C)C)C1c1ccncc1 [2-((3-(2-(dimethylamino)benzyl)-2-(pyridin-4-yl)-tetrahydropyrimidin-1(2H)-yl)methyl)-N,N-dimethylbenzenamine]",–
3 nM,CS(=O)(=O)c1ccc(C(=O)Nc2ccc(Cl)c(-c3ccccn3)c2)c(Cl)c1 [2-chloro-N-(4-chloro-3-(pyridin-2-yl)phenyl)-4-(methylsulfonyl)benzamide],–
5000 nM,"c1cc(-c2sc(-c3ccncc3)c(-c3ccncc3)c2-c2ccncc2)ccn1 [4-(3,4,5-tri(pyridin-4-yl)thiophen-2-yl)pyridine]",–
100 nM,"Cc1nc2ccccn2c1-c1csc(NC(=O)c2ccc3ccccc3c2)n1 [N-(4-(2-methylimidazo[1,2-a]pyridin-3-yl)thiazol-2-yl)-2-naphthamide]",–
–,"COc1cc(OC)cc(C(=O)Nc2ccc(Cl)c(-c3nc4ccc(N(C)C)cc4[nH]3)c2)c1 [N-(4-chloro-3-(5-(dimethylamino)-1H-benzo[d]imidazol-2-yl)phenyl)-3,5-dimethoxybenzamide]",40 nM
30 nM,"CCOc1ccc(Nc2nc(-c3c(C)nc4ccccn34)cs2)cc1 [N-(4-ethoxyphenyl)-4-(2-methylimidazo[1,2-a]pyridin-3-yl)thiazol-2-amine]",–
100 nM,COc1ccc(Cl)cc1Nc1nc(-c2cccnc2)cs1 [N-(5-chloro-2-methoxyphenyl)-4-(pyridin-3-yl)thiazol-2-amine],–

# Reference: BindingDB's records for doi:10.1021/jm801420y (St. Jude Children'S Research Hospital, 2009)
